According to ChEMBL document CHEMBL2331373, “Synthesis and antitubercular activity of amino alcohol fused spirochromone conjugates” (2013):
Values after ≈ are worked out from the molar mass of the structure shown.

Tested on: Mycobacterium tuberculosis
Assay: Antimycobacterial activity against Mycobacterium tuberculosis H37Rv ATCC 27294 by agar dilution method
Type: functional

Compound	MIC [µg/mL]
COc1ccccc1NCC(O)COc1ccc2c(c1)OC1(CCCCC1)CC2=O (stereo not drawn)	12.5 (≈ 30.4 µM)
CC(C)c1ccc(NCC(O)COc2ccc3c(c2)OC2(CCCC2)CC3=O)cc1 (stereo not drawn)	6.25 (≈ 15.3 µM)
Cc1ccccc1NCC(O)COc1ccc2c(c1)OC1(CCN(C(=O)OC(C)(C)C)CC1)CC2=O (stereo not drawn)	25 (≈ 50.3 µM)
Cc1ccccc1NCC(O)COc1ccc2c(c1)OC1(CCCCC1)CC2=O (stereo not drawn)	6.25 (≈ 15.8 µM)
CC(C)c1ccccc1NCC(O)COc1ccc2c(c1)OC1(CCCC1)CC2=O (stereo not drawn)	6.25 (≈ 15.3 µM)
CC(C)c1ccc(NCC(O)COc2ccc3c(c2)OC2(CCN(C(=O)OC(C)(C)C)CC2)CC3=O)cc1 (stereo not drawn)	12.5 (≈ 23.8 µM)
COc1ccccc1NCC(O)COc1ccc2c(c1)OC1(CCCC1)CC2=O (stereo not drawn)	12.5 (≈ 31.4 µM)
CC[C@@H](CO)NCCN[C@@H](CC)CO [ETHAMBUTOL]	1.56 (≈ 7.64 µM)
O=C1CC2(CCCCC2)Oc2cc(OCC(O)CNc3ccccc3)ccc21 (stereo not drawn)	12.5 (≈ 32.8 µM)
O=C1CC2(CCCC2)Oc2cc(OCC(O)CNc3ccccc3Cl)ccc21 (stereo not drawn)	6.25 (≈ 15.6 µM)
COc1ccc(NCC(O)COc2ccc3c(c2)OC2(CCCC2)CC3=O)cc1 (stereo not drawn)	25 (≈ 62.9 µM)
Cc1ccccc1NCC(O)COc1ccc2c(c1)OC1(CCCC1)CC2=O (stereo not drawn)	12.5 (≈ 32.8 µM)
O=C1CC2(CCCC2)Oc2cc(OCC(O)CN3CCOCC3)ccc21 (stereo not drawn)	> 25
COc1ccc(NCC(O)COc2ccc3c(c2)OC2(CCCCC2)CC3=O)cc1 (stereo not drawn)	12.5 (≈ 30.4 µM)
CC(C)(C)OC(=O)N1CCC2(CC1)CC(=O)c1ccc(OCC(O)CNc3ccccc3)cc1O2 (stereo not drawn)	> 25
O=C1CC2(CCCC2)Oc2cc(OCC(O)CNc3ccccc3)ccc21 (stereo not drawn)	25 (≈ 68 µM)
COc1ccccc1NCC(O)COc1ccc2c(c1)OC1(CCN(C(=O)OC(C)(C)C)CC1)CC2=O (stereo not drawn)	25 (≈ 48.8 µM)
CC(C)c1ccc(NCC(O)COc2ccc3c(c2)OC2(CCCCC2)CC3=O)cc1 (stereo not drawn)	6.25 (≈ 14.8 µM)
COc1ccc(CNCC(O)COc2ccc3c(c2)OC2(CCCC2)CC3=O)cc1 (stereo not drawn)	12.5 (≈ 30.4 µM)
COc1ccc(NCC(O)COc2ccc3c(c2)OC2(CCN(C(=O)OC(C)(C)C)CC2)CC3=O)cc1 (stereo not drawn)	> 25
O=C1CC2(CCCC2)Oc2cc(OCC(O)CNc3ccc([N+](=O)[O-])cc3O)ccc21 (stereo not drawn)	6.25 (≈ 14.6 µM)
O=C1CC2(CCCC2)Oc2cc(OCC(O)CNc3cccc(F)c3)ccc21 (stereo not drawn)	3.13 (≈ 8.12 µM)
CO[C@H]1/C=C/O[C@@]2(C)Oc3c(C)c(O)c4c(O)c(c(/C=N/N5CCN(C)CC5)c(O)c4c3C2=O)NC(=O)/C(C)=C\C=C\[C@H](C)[C@H](O)[C@@H](C)[C@@H](O)[C@@H](C)[C@H](OC(C)=O)[C@@H]1C [RIFAMPIN]	0.2 (≈ 0.243 µM)
